Legend:
[1] = Stability tests of Crystal Form A in different solvents; format: physicochemical; settings: for Status (after 2 days): 50 mg, stirred at 40° C. for 2 days
Method: The solids in all samples were collected and dried in vacuum drying oven (40° C.) overnight. The crystal forms were tested for XRPD.

[2] = Solid stability test under long-term conditions (25° C./Relative Humidity 60%, sealed); format: physicochemical
Method: Content Determination Method
Device: Agilent 1260 High Performance Liquid Chromatograph with DAD detector or Shimadzu LC-20A High Performance Liquid Chromatograph with PDA detector
Detailed Chromatographic parameters are as follows:
Chromatographic column: Agilent Eclipse plus C18 (4.6 mm×150 mm, 3.5 μm)
Column temperature: 40° C.
Detecting wavelength: 230 nm
Mobile Phase A: 0.04% trifluoroacetic acid aqueous solution (V/V)
Mobile Phase B: acetonitrile
Diluent: acetonitrile: purified water=3:1 (v/v)
Probe Wash: acetonitrile: purified water=3:1 (v/v)
Gradient elution procedure: […]
Each layer of the low-density polyethylene bag was buckled and sealed respectively and then the bag was placed in an aluminum foil bag and heat-sealed. The samples were taken on the 3rd, 6th, 9th, 12th and 18th months for testing and the test results were compared with the initial test results of day 0.

[3] = Batch 1, 25° C./Relative Humidity 60%, Sealed, 3rd month
[4] = Batch 1, 25° C./Relative Humidity 60%, Sealed, 6th month
[5] = Batch 1, 25° C./Relative Humidity 60%, Sealed, 9th month
[6] = Batch 1, 25° C./Relative Humidity 60%, Sealed, 12th month
[7] = Batch 1, 25° C./Relative Humidity 60%, Sealed, 18th month
[8] = Batch 2, 25° C./Relative Humidity 60%, Sealed, 3rd month
[9] = Batch 2, 25° C./Relative Humidity 60%, Sealed, 6th month
[10] = Batch 2, 25° C./Relative Humidity 60%, Sealed, 9th month
[11] = Batch 2, 25° C./Relative Humidity 60%, Sealed, 12th month
[12] = Batch 2, 25° C./Relative Humidity 60%, Sealed, 18th month
[13] = Batch 3, 25° C./Relative Humidity 60%, Sealed, 3rd month
[14] = Batch 3, 25° C./Relative Humidity 60%, Sealed, 6th month
[15] = Batch 3, 25° C./Relative Humidity 60%, Sealed, 9th month
[16] = Batch 3, 25° C./Relative Humidity 60%, Sealed, 12th month
[17] = Batch 3, 25° C./Relative Humidity 60%, Sealed, 18th month

In the case of `CCOc1cc([C@@H](CS(C)(=O)=O)n2c(=O)[nH]c3c(C)c(-c4ccccc4F)cnc32)ccc1OC` [Crystal Form A of Compound 1], the “Status (after 2 days)” value ([1]; Acetone 0.4 mL) is reported as “Suspension”, the “Status (after 2 days)” value ([1]; Acetone:Water (1:2) 0.4 mL) is reported as “Suspension” and the “Status (after 2 days)” value ([1]; Acetonitrile 0.4 mL) is reported as “Suspension”. For the same compound, the “Status (after 2 days)” value ([1]; Acetonitrile:Water (1:1) 0.4 mL) was “Suspension”, the “Status (after 2 days)” value ([1]; Ethanol 0.4 mL) was “Suspension” and the “Status (after 2 days)” value ([1]; Ethanol:Water (3:1) 0.4 mL) was “Suspension”. The “Status (after 2 days)” value ([1]; Ethyl Acetate 0.4 mL) was “Suspension”, the “Status (after 2 days)” value ([1]; Methanol 0.4 mL) was “Suspension” and the “Status (after 2 days)” value ([1]; Methanol:Water (3:1) 0.4 mL) was “Suspension”. The “Status (after 2 days)” value ([1]; Tetrahydrofuran 0.3 mL) was “Suspension”, the “Stability in solvents (conclusion)” value ([1]; alcohol solvent, acetonitrile, acetone, ethyl acetate, tetrahydrofuran and mixed solvents with water) was “good stability” and the Appearance [2, 3] was “White powder”. The Content [2, 3] was 99.0%, the “Total Impurity” value [2, 3] was 0.09% and the Appearance [2, 4] was “White powder”. For the same compound, the Content [2, 4] was 101.4%, the “Crystal Form (XRPD)” value [2, 4] was “Crystal Form A” and the “Total Impurity” value [2, 4] was 0.09%. For the same compound, the Appearance [2, 5] was “White powder”, the Content [2, 5] was 99.6% and the “Total Impurity” value [2, 5] was 0.09%. The Appearance [2, 6] was “White powder”, the Content [2, 6] was 98.8% and the “Crystal Form (XRPD)” value [2, 6] was “Crystal Form A”. The “Total Impurity” value [2, 6] was 0.08%, the Appearance [2, 7] was “White powder” and the Content [2, 7] was 97.3%. The “Total Impurity” value [2, 7] was 0.10%, the Appearance ([2]; Batch 1, Day 0) was “White powder” and the Content ([2]; Batch 1, Day 0) was 99.4%. For the same compound, the “Crystal Form (XRPD)” value ([2]; Batch 1, Day 0) was “Crystal Form A”, the “Total Impurity” value ([2]; Batch 1, Day 0) was 0.09% and the Appearance [2, 8] was “White powder”. The Content [2, 8] was 100.5%, the “Total Impurity” value [2, 8] was 0.11% and the Appearance [2, 9] was “White powder”. The Content [2, 9] was 100.1%, the “Crystal Form (XRPD)” value [2, 9] was “Crystal Form A” and the “Total Impurity” value [2, 9] was 0.12%. The Appearance [2, 10] was “White powder”, the Content [2, 10] was 99.6% and the “Total Impurity” value [2, 10] was 0.11%. For the same compound, the Appearance [2, 11] was “White powder”, the Content [2, 11] was 98.2% and the “Crystal Form (XRPD)” value [2, 11] was “Crystal Form A”. For the same compound, the “Total Impurity” value [2, 11] was 0.09%, the Appearance [2, 12] was “White powder” and the Content [2, 12] was 99.1%. The “Total Impurity” value [2, 12] was 0.11%, the Appearance ([2]; Batch 2, Day 0) was “White powder” and the Content ([2]; Batch 2, Day 0) was 99.4%. For the same compound, the “Crystal Form (XRPD)” value ([2]; Batch 2, Day 0) was “Crystal Form A”, the “Total Impurity” value ([2]; Batch 2, Day 0) was 0.10% and the Appearance [2, 13] was “White powder”. The Content [2, 13] was 98.9%, the “Total Impurity” value [2, 13] was 0.16% and the Appearance [2, 14] was “White powder”. The Content [2, 14] was 98.5%, the “Crystal Form (XRPD)” value [2, 14] was “Crystal Form A” and the “Total Impurity” value [2, 14] was 0.12%. For the same compound, the Appearance [2, 15] was “White powder”, the Content [2, 15] was 99.2% and the “Total Impurity” value [2, 15] was 0.11%. The Appearance [2, 16] was “White powder”, the Content [2, 16] was 98.4% and the “Crystal Form (XRPD)” value [2, 16] was “Crystal Form A”. The “Total Impurity” value [2, 16] was 0.10%, the Appearance [2, 17] was “White powder” and the Content [2, 17] was 99.7%. The “Total Impurity” value [2, 17] was 0.17%, the Appearance ([2]; Batch 3, Day 0) was “White powder” and the Content ([2]; Batch 3, Day 0) was 99.5%. For the same compound, the “Crystal Form (XRPD)” value ([2]; Batch 3, Day 0) was “Crystal Form A”, the “Total Impurity” value ([2]; Batch 3, Day 0) was 0.11% and the “Solid stability (conclusion)” value ([2]; long-term conditions of 25° C./Relative Humidity 60%) was “good stability”.
